Test results taken from paper PMC7066191, “Exploiting loss of heterozygosity for allele-selective colorectal cancer chemotherapy” (Nature Communications, 2020).

How the values were obtained:
FLT4 = FLT4 (Homo sapiens, UniProt P35916); assay: biochemical; set-up: scanMAX competition binding; kinase recovered on immobilized ligand quantified by qPCR, per cent of control; details: read-out: APA (POC)
Experimental: (§1) The binding affinities of APA and NAPA were evaluated in the scanMAX^sm Kinase Assay Panel (DiscoverX) at a final concentration of 10 µM. The compounds were tested for steric or allosteric binding to kinases in solution. The kinase was captured from the solution through an immobilized kinase-specific ligand and the kinase recovery was quantified. The amount of recovered kinase in the presence or absence of APA or NAPA was measured by quantitative PCR compared with the kinase capture in absence of the compound. Any compound reducing the binding affinity of a kinase to the respective immobilized ligand was scored as a potential hit, and the binding affinity of the compound toward a kinase is interpreted as the difference between the kinase recovery in the absence and presence of the compound. The inhibitory binding constants (Kd) of APA and NAPA to AURKA were evaluated in a KdELECT Kinase Assay (DiscoverX). […] Data acquisition followed the same methodology as for the scanMAX^sm Kinase Assay Panel. 6 Supplementary Figure 4. Kinome inhibition profiles of APA and its NAT2 metabolite NAPA identifies preferential APA kinase targets and differential binding to AURKA a The human kinome was assessed for binding affinity to APA and NAPA at 10 µM concentration (468 kinases in the scanMAX Kinase Assay Panel, DiscoverX). The family stratification of kinases is shown as a cladogram. Circles visualize the binding affinity of NAPA and APA towards each kinase with a higher intensity of blue corresponding to a higher binding affinity. […] One single data point from one experiment at a concentration 18.5 µM of APA was excluded as an outlier. c Thermal shift assay for human recombinant AURKA in the presence of APA and the selective inhibitor S1451. Melting temperatures were obtained by calculating the first derivative of the tryptophan fluorescence ratio at 350 nm and 330 nm and are shown for AURKA in the presence of S1451 (blue) and APA (yellow). Structural similarities between APA and kinase inhibitors[27] prompted investigation of protein kinases as mediators of APA toxicity. […] To enrich for kinase interactions that could explain the preferential killing of slow NAT2 cells, we compared the binding affinity of each kinase with APA and NAPA, selected 44 targets with preferential binding to APA and excluded kinases non-essential for cell survival and those not expressed in CRC cells (Supplementary Fig. 4A, Supplementary Table 4). […] The growth inhibition of RKO and DLD-1 following siRNA-mediated AURKA knockdown (Figs. 3c, d) reflected the relative efficiency of protein downregulation (Supplementary Fig. 5C, D). […] (Supplementary Fig. 4C). AURKA regulates cell cycle progression through association with other centrosome and spindle-associated proteins. Its activation requires auto-phosphorylation at Thr288 and ensures spindle pole integrity, centrosome duplication as well as adequate chromosomal alignment and segregation, while its inhibition leads to multipolar spindles with acentrosomal poles[28],[31]. […] S1451 reduced the fraction of pAURKA levels by >90% regardless of NAT2 expression (Fig. 3f and Su

RPS6KA1_Dom1 = target: T1, RPS6KA1_Dom1 (Homo sapiens, UniProt Q15418); assay: biochemical; set-up: scanMAX competition binding; kinase recovered on immobilized ligand quantified by qPCR, per cent of control; details: read-out: APA (POC)
T1 construct: gene RPS6KA1; Kin.Dom.1 N-terminal
T1 sequence (Q15418 whole entry): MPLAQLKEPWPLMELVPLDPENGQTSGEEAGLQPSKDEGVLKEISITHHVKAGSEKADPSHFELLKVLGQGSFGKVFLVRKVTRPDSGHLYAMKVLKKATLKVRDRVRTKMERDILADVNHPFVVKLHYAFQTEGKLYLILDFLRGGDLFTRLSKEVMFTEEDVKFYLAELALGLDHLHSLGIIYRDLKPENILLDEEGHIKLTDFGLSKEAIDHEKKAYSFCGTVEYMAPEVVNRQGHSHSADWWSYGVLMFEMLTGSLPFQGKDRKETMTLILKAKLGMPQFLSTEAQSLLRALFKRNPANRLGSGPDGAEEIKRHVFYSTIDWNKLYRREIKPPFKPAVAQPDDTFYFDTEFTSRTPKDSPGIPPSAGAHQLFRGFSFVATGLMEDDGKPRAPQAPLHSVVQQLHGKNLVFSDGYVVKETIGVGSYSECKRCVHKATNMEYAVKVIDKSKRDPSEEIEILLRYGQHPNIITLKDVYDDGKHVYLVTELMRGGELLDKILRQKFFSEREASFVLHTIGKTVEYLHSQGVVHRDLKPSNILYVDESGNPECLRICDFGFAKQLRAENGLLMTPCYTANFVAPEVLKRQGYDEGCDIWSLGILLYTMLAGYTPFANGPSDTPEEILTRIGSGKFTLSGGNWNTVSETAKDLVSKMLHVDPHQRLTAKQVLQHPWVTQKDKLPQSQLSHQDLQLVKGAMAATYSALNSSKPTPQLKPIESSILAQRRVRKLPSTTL
Experimental: as §1

RIOK3 = RIOK3 (Homo sapiens, UniProt O14730); assay: biochemical; set-up: scanMAX competition binding; kinase recovered on immobilized ligand quantified by qPCR, per cent of control; details: read-out: APA (POC)
Chain of RIOK3 (O14730 whole entry): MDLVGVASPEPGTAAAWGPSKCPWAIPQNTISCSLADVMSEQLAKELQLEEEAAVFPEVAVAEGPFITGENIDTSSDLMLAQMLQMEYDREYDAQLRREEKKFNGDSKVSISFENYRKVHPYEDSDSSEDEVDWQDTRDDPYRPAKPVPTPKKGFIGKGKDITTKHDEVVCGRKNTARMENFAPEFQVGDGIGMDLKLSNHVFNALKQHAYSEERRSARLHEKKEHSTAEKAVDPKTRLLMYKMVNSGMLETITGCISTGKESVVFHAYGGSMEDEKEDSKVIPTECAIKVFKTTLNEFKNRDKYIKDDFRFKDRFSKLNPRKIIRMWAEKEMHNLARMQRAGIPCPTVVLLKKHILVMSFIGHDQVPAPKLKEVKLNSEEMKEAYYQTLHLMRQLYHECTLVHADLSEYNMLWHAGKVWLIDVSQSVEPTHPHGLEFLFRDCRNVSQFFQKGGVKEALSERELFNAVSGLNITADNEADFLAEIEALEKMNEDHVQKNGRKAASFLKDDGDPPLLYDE
Experimental: as §1

AAK1 = AAK1 (Homo sapiens, UniProt Q2M2I8); assay: biochemical; set-up: scanMAX competition binding; kinase recovered on immobilized ligand quantified by qPCR, per cent of control; details: read-out: APA (POC)
Chain of AAK1 (Q2M2I8 whole entry): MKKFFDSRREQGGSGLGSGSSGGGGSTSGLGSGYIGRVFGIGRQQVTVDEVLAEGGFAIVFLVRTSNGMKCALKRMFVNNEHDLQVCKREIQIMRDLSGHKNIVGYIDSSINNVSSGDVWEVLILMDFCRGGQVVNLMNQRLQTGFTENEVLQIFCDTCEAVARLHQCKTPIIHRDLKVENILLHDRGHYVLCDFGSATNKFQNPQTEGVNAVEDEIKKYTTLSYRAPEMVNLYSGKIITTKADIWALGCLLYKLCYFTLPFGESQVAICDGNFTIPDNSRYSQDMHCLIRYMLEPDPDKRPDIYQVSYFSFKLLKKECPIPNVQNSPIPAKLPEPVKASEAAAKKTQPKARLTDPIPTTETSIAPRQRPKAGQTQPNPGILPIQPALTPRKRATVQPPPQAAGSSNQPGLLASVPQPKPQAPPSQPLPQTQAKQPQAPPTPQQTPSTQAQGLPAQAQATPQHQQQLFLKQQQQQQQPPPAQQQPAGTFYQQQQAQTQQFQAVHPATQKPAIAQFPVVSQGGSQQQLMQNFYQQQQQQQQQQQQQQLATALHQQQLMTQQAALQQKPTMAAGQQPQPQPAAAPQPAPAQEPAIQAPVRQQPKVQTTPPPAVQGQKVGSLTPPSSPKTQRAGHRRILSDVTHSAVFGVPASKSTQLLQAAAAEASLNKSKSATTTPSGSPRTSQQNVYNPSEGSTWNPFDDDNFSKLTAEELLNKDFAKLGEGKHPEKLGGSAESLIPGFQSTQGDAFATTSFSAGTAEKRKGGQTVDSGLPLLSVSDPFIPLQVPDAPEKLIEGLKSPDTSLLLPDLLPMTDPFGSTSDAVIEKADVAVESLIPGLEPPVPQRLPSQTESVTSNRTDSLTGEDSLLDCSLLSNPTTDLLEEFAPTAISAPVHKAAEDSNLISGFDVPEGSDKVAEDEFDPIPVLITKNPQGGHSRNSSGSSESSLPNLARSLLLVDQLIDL
Experimental: as §1

PIP4K2B = PIP4K2B (Homo sapiens, UniProt P78356); assay: biochemical; set-up: scanMAX competition binding; kinase recovered on immobilized ligand quantified by qPCR, per cent of control; details: read-out: APA (POC)
Chain of PIP4K2B (P78356 whole entry): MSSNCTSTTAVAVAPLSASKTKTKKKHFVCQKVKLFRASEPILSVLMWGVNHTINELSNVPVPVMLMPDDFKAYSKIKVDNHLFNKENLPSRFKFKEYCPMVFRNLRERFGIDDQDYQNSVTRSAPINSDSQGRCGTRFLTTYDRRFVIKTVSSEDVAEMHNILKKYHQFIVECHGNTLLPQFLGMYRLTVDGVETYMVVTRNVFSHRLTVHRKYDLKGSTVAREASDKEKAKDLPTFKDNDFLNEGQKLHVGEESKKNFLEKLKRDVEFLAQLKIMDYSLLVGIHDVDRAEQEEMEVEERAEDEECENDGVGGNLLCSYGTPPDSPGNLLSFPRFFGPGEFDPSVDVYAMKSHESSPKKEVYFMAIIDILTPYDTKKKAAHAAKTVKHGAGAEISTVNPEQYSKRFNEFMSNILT
Experimental: as §1

MINK1 = MINK1 (Homo sapiens, UniProt Q8N4C8); assay: biochemical; set-up: scanMAX competition binding; kinase recovered on immobilized ligand quantified by qPCR, per cent of control; details: read-out: APA (POC)
Chain of MINK1 (Q8N4C8 whole entry): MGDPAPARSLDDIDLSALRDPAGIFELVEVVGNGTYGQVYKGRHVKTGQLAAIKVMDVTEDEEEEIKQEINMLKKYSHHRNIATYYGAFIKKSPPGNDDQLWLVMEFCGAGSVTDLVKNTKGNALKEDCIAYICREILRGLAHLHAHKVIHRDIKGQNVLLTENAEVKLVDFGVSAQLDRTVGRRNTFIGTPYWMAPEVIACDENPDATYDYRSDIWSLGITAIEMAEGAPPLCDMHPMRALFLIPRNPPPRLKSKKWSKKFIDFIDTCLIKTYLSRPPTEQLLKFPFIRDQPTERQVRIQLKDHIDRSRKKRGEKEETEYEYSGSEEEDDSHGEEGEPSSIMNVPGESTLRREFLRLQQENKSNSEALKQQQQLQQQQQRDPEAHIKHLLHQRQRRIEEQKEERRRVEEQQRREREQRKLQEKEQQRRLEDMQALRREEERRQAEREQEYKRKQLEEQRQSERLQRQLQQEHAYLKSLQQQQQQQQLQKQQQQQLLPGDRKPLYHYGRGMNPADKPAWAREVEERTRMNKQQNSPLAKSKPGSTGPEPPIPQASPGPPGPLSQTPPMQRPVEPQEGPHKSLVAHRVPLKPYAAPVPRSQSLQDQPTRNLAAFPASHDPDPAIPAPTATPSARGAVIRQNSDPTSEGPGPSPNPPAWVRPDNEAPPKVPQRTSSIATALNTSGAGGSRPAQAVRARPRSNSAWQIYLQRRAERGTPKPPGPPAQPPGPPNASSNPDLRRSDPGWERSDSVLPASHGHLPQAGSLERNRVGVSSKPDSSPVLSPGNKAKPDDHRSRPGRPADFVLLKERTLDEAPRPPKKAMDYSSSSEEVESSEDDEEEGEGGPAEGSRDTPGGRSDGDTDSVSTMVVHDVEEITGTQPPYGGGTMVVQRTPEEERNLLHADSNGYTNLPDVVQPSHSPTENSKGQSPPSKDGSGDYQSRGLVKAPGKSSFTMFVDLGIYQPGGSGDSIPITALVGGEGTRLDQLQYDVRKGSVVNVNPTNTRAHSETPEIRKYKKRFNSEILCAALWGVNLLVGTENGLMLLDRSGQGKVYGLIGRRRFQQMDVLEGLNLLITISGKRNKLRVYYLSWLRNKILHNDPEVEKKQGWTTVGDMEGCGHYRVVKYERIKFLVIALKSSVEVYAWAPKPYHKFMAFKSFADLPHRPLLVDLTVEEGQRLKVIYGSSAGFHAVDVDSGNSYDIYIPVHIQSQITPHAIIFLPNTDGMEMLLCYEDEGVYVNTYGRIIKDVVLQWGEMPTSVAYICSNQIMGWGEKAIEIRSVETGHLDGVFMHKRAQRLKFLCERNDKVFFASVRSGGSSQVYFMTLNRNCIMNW
Experimental: as §1

CDKL2 = CDKL2 (Homo sapiens, UniProt Q92772); assay: biochemical; set-up: scanMAX competition binding; kinase recovered on immobilized ligand quantified by qPCR, per cent of control; details: read-out: APA (POC)
Chain of CDKL2 (Q92772 whole entry): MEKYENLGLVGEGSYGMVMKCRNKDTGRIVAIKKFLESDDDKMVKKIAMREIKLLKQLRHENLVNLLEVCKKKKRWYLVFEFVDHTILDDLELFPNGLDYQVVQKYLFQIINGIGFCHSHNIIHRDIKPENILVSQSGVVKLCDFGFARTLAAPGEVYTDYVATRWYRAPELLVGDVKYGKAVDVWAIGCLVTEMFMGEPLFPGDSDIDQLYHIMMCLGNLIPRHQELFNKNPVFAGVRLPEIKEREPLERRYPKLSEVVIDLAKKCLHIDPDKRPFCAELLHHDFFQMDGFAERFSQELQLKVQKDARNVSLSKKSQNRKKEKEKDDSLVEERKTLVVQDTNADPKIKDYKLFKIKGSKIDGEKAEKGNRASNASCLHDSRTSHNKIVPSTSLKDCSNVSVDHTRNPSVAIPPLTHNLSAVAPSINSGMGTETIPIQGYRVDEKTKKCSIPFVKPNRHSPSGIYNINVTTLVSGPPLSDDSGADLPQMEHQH
Experimental: as §1

HIPK4 = HIPK4 (Homo sapiens, UniProt Q8NE63); assay: biochemical; set-up: scanMAX competition binding; kinase recovered on immobilized ligand quantified by qPCR, per cent of control; details: read-out: APA (POC)
Experimental: as §1

CSF1R = CSF1R (Homo sapiens, UniProt P07333); assay: biochemical; set-up: scanMAX competition binding; kinase recovered on immobilized ligand quantified by qPCR, per cent of control; details: read-out: APA (POC)
Experimental: as §1

RPS6KA3_Dom1 = target: T2, RPS6KA3_Dom1 (Homo sapiens, UniProt P51812); assay: biochemical; set-up: scanMAX competition binding; kinase recovered on immobilized ligand quantified by qPCR, per cent of control; details: read-out: APA (POC)
T2 construct: gene RPS6KA3; Kin.Dom.1 N-terminal
Experimental: as §1

CSNK2A2 = CSNK2A2 (Homo sapiens, UniProt P19784); assay: biochemical; set-up: scanMAX competition binding; kinase recovered on immobilized ligand quantified by qPCR, per cent of control; details: read-out: APA (POC)
Chain of CSNK2A2 (P19784 whole entry): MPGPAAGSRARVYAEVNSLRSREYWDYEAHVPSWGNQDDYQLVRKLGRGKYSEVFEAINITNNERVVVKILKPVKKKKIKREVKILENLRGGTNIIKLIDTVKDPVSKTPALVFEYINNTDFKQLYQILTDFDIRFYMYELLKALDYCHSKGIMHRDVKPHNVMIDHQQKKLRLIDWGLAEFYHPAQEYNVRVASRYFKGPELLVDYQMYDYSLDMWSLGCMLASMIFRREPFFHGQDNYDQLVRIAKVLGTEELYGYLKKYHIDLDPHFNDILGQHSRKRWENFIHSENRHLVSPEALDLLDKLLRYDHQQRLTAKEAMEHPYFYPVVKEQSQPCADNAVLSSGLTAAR
Experimental: as §1

NEK10 = NEK10 (Homo sapiens, UniProt Q6ZWH5); assay: biochemical; set-up: scanMAX competition binding; kinase recovered on immobilized ligand quantified by qPCR, per cent of control; details: read-out: APA (POC)
Experimental: as §1

RET = RET (Homo sapiens, UniProt P07949); assay: biochemical; set-up: scanMAX competition binding; kinase recovered on immobilized ligand quantified by qPCR, per cent of control; details: read-out: APA (POC)
Experimental: as §1

AURKA = AURKA (Homo sapiens, UniProt O14965); assay: biochemical; set-up: scanMAX competition binding; kinase recovered on immobilized ligand quantified by qPCR, per cent of control; details: read-out: APA (POC)
Experimental: as §1

Aurora kinase A = target: T3, Aurora kinase A (Homo sapiens, UniProt O14965); assay: KdELECT competition binding (DiscoverX), 11-point; nanoDSF thermal shift
T3 construct: gene AURKA

SMILES: COc1cc(Nc2cncc(-c3ccc(N)cc3)n2)cc(OC)c1OC [APA, 6-(4-aminophenyl)-N-(3,4,5-trimethoxyphenyl)pyrazin-2-amine]
- remaining binding at 10 µM (FLT4): 35%
- remaining binding at 10 µM (RPS6KA1_Dom1): 56%
- remaining binding at 10 µM (RIOK3): 21%
- remaining binding at 10 µM (AAK1): 45%
- remaining binding at 10 µM (PIP4K2B): 20%
- remaining binding at 10 µM (MINK1): 24%
- remaining binding at 10 µM (CDKL2): 42%
- remaining binding at 10 µM (HIPK4): 10%
- remaining binding at 10 µM (CSF1R): 3.9%
- remaining binding at 10 µM (RPS6KA3_Dom1): 39%
- remaining binding at 10 µM (CSNK2A2): 29%
- remaining binding at 10 µM (NEK10): 37%
- remaining binding at 10 µM (RET): 24%
- remaining binding at 10 µM (AURKA): 53%
- Kd (Aurora kinase A): 13.5 µM
